Earlier results, collected in patent US11858967B2, “Compositions and methods for enhanced production of enduracidin in a genetically engineered strain of streptomyces fungicidicus” (Oregon State University, priority 2016, dated 2024).
Read-outs that look alike come from different tables or passages of the source.

Legend:
[1] = tested on: Gram-positive organisms, including methicillin-resistant Staphylococcus aureus (MRSA) and vancomycin-resistant Enterococcus (VRE)
[2] = tested on: S. aureus (100 strains, including 40% MRSA); settings: 100 strains of S. aureus
[3] = mice, rabbits, dogs and monkeys
[4] = monkey, in vivo
[5] = rat, in vivo
MRSA = settings: humans, i.m. 100 mg every 12 hours
[6] = in vivo

Enduracidin
type of antibacterial effect [1]: bactericidal
Minimum inhibitory concentrations (MICs) ([1]; as low as): ≥ 0.05 µg/mL
concentration at which no strain was able to survive exposure [2]: 1 µg/mL
acute LD50 ([3]; intraperitoneal): 750 to 910 mg/kg
acute LD50 ([3]; intravenous): 30 to 125 mg/kg
acute LD50 ([3]; subcutaneous, intramuscular (i.m.) or oral): 5000 to 10000 mg/kg
activity towards Clostridium spp. (Clostridium spp.): excellent activity
findings after long-term dosing [4]: localized inflammation at the injection site
findings after long-term dosing [5]: localized inflammation at the injection site
efficacy in chronic bone infections (MRSA): not chronic bone infections
efficacy in urinary tract and skin infections caused by MRSA (MRSA): highly effective
oral bioavailability [6]: lack of oral bioavailability
